Test results: ChEMBL document CHEMBL4804283, “Stk19 inhibitors for treatment of cancer” (2020)
Activity calls are given as the source filed them. The rule behind the calls is not given here.

Columns and labels:
[1] = Toxicity in C57BL/6J mouse assessed as brain histology at 25 mg/kg, administered twice daily for 20 days by H and E staining method; assay type: organism-based; details: in vivo, 480 h
[2] = molecular target: T1, Inactive serine/threonine-protein kinase 19 (Homo sapiens) (UniProt P49842); assay: Inhibition of STK19 in human SK-MEL-2 cells expressing NRAS Q61R and wild-type BRAF at 1-3 uM assessed as PI3K signaling relative to control; assay type: cell-based
T1 sequence (whole entry): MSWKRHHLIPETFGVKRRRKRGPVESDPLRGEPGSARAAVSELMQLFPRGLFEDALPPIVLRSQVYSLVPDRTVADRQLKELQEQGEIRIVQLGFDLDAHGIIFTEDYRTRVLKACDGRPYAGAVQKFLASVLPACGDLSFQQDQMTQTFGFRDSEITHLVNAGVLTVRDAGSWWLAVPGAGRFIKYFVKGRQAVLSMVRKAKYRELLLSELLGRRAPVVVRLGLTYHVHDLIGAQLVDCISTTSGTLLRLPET

[3] = test system: SK-MEL-2; assay: Inhibition of G9a in nude mouse xenografted with human SK-MEL-2 cells assessed as decrease in H3K9 methylation at 50 mg/kg; assay type: functional, organism-based
[4] = molecular target: T1, Inactive serine/threonine-protein kinase 19 (Homo sapiens); assay: Inhibition of STK19 in STK19-depleted human primary melanocytes expressing wild-type STK19 at 1-3 uM assessed as NRAS phosphorylation relative to control; assay type: tissue-based; details: Melanocyte
[5] = Toxicity in C57BL/6J mouse assessed as effect on total bilirubin level at 25 mg/kg, administered twice daily for 20 days; assay type: organism-based; details: in vivo, 480 h
[6] = molecular target: T1, Inactive serine/threonine-protein kinase 19 (Homo sapiens); assay: Inhibition of STK19 in human UACC62 cells expressing wild-type NRAS and BRAF V600E mutant at 1-3 uM assessed as MEK-ERK signaling relative to control; assay type: cell-based; details: UACC-62
[7] = molecular target: T1, Inactive serine/threonine-protein kinase 19 (Homo sapiens); assay: Inhibition of STK19 in human A375 cells expressing wild-type NRAS and BRAF V600E mutant at 1-3 uM assessed as MEK-ERK signaling relative to control; assay type: cell-based; details: A-375
[8] = molecular target: T1, Inactive serine/threonine-protein kinase 19 (Homo sapiens); assay: Inhibition of STK19 in human WM2032 cells expressing NRAS Q61R and wild-type BRAF at 1-3 uM assessed as PI3K signaling relative to control; assay type: cell-based
[9] = molecular target: T1, Inactive serine/threonine-protein kinase 19 (Homo sapiens); assay: Inhibition of STK19 in human SK-MEL-2 cells expressing NRAS Q61R and wild-type BRAF at 300 nM assessed as H3K9 methylation relative to control; assay type: cell-based
[10] = Toxicity in C57BL/6J mouse assessed as lung histology at 25 mg/kg, administered twice daily for 20 days by H and E staining method; assay type: organism-based; details: in vivo, 480 h
[11] = molecular target: T1, Inactive serine/threonine-protein kinase 19 (Homo sapiens); assay: Inhibition of STK19 in human A375 cells expressing wild-type NRAS and BRAF V600E mutant at 1-3 uM assessed as NRAS signaling relative to control; assay type: cell-based; details: A-375
[12] = Toxicity in C57BL/6J mouse assessed as effect on creatinine level at 25 mg/kg, administered twice daily for 20 days; assay type: organism-based; details: in vivo, 480 h
[13] = test system: SK-MEL-2; assay: Inhibition of STK19 in nude mouse xenografted with human SK-MEL-2 cells assessed as decrease in NRAS phosphorylation at 25 mg/kg; assay type: functional, organism-based
[14] = molecular target: T1, Inactive serine/threonine-protein kinase 19 (Homo sapiens); assay: Inhibition of STK19 in human A375 cells expressing wild-type NRAS and BRAF V600E mutant at 1-3 uM assessed as PI3K signaling relative to control; assay type: cell-based; details: A-375
[15] = test system: A-375; assay: Growth inhibition of human A375 cells expressing wild-type NRAS and BRAF V600E mutant at 1-3 uM relative to control; assay type: functional, cell-based
[16] = molecular target: T1, Inactive serine/threonine-protein kinase 19 (Homo sapiens); assay: Inhibition of STK19 in human UACC62 cells expressing wild-type NRAS and BRAF V600E mutant at 1-3 uM assessed as PI3K signaling relative to control; assay type: cell-based; details: UACC-62
[17] = Toxicity in C57BL/6J mouse assessed as effect on lactic dehydrogenase level at 25 mg/kg, administered twice daily for 20 days; assay type: organism-based; details: in vivo, 480 h
[18] = test system: SK-MEL-2; assay: Antitumor activity against human SK-MEL-2 cells xenografted in nude mouse assessed as induction of apoptosis at 50 mg/kg, administered for 21 days; assay type: functional, organism-based
[19] = test system: UACC-62; assay: Growth inhibition of human UACC62 cells expressing wild-type NRAS and BRAF V600E mutant at 1-3 uM relative to control; assay type: functional, cell-based
[20] = molecular target: T1, Inactive serine/threonine-protein kinase 19 (Homo sapiens); assay: Inhibition of STK19 in human SK-MEL-2 cells expressing NRAS Q61R and wild-type BRAF at 100 nM assessed as NRAS phosphorylation relative to control; assay type: cell-based
[21] = molecular target: T1, Inactive serine/threonine-protein kinase 19 (Homo sapiens); assay: Inhibition of wild-type STK19 in human primary melanocytes at 0.1-3 uM relative to control; assay type: cell-based
[22] = test system: WM2032; assay: Growth inhibition of human WM2032 cells expressing NRAS Q61R and wild-type BRAF at 1-3 uM relative to control; assay type: functional, cell-based
[23] = test system: SK-MEL-2; assay: Growth inhibition of human SK-MEL-2 cells expressing NRAS Q61R and wild-type BRAF at 1-3 uM relative to control; assay type: functional, cell-based
[24] = molecular target: T1, Inactive serine/threonine-protein kinase 19 (Homo sapiens); assay: Inhibition of STK19 in human UACC62 cells expressing wild-type NRAS and BRAF V600E mutant at 1-3 uM assessed as NRAS signaling relative to control; assay type: cell-based; details: UACC-62
[25] = test system: hTERT; assay: Antitumor activity against hTERT/p53DD/CDK4 (R24C) immortal melanocytes expressing wild-type STK19 xenografted in nude mouse assessed as reduction in tumor formation; assay type: functional; details: Homo sapiens
[26] = test system: UACC-62; assay: Induction of apoptosis in human UACC62 cells expressing wild-type NRAS and BRAF V600E mutant at 1-3 uM relative to control; assay type: functional, cell-based
[27] = test system: hTERT; assay: Antitumor activity against hTERT/p53DD/CDK4 (R24C) immortal melanocytes expressing STK19 D89N mutant xenografted in nude mouse assessed as reduction in tumor formation; assay type: functional; details: Homo sapiens
[28] = molecular target: T1, Inactive serine/threonine-protein kinase 19 (Homo sapiens); assay: Inhibition of STK19 in human WM2032 cells expressing NRAS Q61R and wild-type BRAF at 100 nM assessed as H3K9 methylation relative to control; assay type: cell-based
[29] = Toxicity in C57BL/6J mouse assessed as effect on total protein level at 25 mg/kg, administered twice daily for 20 days; assay type: organism-based; details: in vivo, 480 h
[30] = Toxicity in C57BL/6J mouse assessed as heart histology at 25 mg/kg, administered twice daily for 20 days by H and E staining method; assay type: organism-based; details: in vivo, 480 h
[31] = Toxicity in nude mouse xenografted with human SK-MEL-2 cells assessed as increase in animal survival at 50 mg/kg; assay type: organism-based; details: in vivo
[32] = Toxicity in C57BL/6J mouse assessed as spleen histology at 25 mg/kg, administered twice daily for 20 days by H and E staining method; assay type: organism-based; details: in vivo, 480 h
[33] = Toxicity in C57BL/6J mouse assessed as effect on albumin level at 25 mg/kg, administered twice daily for 20 days; assay type: organism-based; details: in vivo, 480 h
[34] = test system: SK-MEL-2; assay: Inhibition of STK19 in nude mouse xenografted with human SK-MEL-2 cells assessed as decrease in NRAS phosphorylation at 50 mg/kg; assay type: functional, organism-based
[35] = Toxicity in C57BL/6J mouse assessed as kidney histology at 25 mg/kg, administered twice daily for 20 days by H and E staining method; assay type: organism-based; details: in vivo, 480 h
[36] = Toxicity in C57BL/6J mouse assessed as effect on alkaline phosphatase level at 25 mg/kg, administered twice daily for 20 days; assay type: organism-based; details: in vivo, 480 h

Q: Which Activity [1] does the source give for COc1cc2nc(NC3CC3)nc(NC3CCN(C(C)C)CC3)c2cc1OC.O=C(O)C(F)(F)F here?
A: Non-Toxic

Q: And the inhibition [2]?
A: Active

Q: And the inhibition [3]?
A: inactive

Q: What about the inhibition [4] of the same molecule?
A: Active

Q: And the Activity [5]?
A: Non-Toxic

Q: What about the inhibition [6] of the same molecule?
A: inactive

Q: What about the inhibition [7] of the same molecule?
A: inactive

Q: What about the inhibition [8] of the same molecule?
A: Active

Q: What about the inhibition [9] of the same molecule?
A: inactive

Q: What about the Activity [10] of the same molecule?
A: Non-Toxic

Q: What about the inhibition [11] of the same molecule?
A: inactive

Q: What about the Activity [12] of the same molecule?
A: Non-Toxic

Q: And the inhibition [13]?
A: Active

Q: And the inhibition [14]?
A: inactive

Q: What about the Activity [15] of the same molecule?
A: inactive

Q: And the inhibition [16]?
A: inactive

Q: And the Activity [17]?
A: Non-Toxic

Q: And the Activity [18]?
A: Active

Q: What about the Activity [19] of the same molecule?
A: inactive

Q: What about the inhibition [20] of the same molecule?
A: Active

Q: What about the inhibition [21] of the same molecule?
A: Active

Q: What about the Activity [22] of the same molecule?
A: Active

Q: And the Activity [23]?
A: Active

Q: What about the inhibition [24] of the same molecule?
A: inactive

Q: And the Activity [25]?
A: Active

Q: And the Activity [26]?
A: inactive

Q: And the Activity [27]?
A: Active

Q: And the inhibition [28]?
A: inactive

Q: And the Activity [29]?
A: Non-Toxic

Q: And the Activity [30]?
A: Non-Toxic

Q: What about the Activity [31] of the same molecule?
A: Non-Toxic

Q: What about the Activity [32] of the same molecule?
A: Non-Toxic

Q: And the Activity [33]?
A: Non-Toxic

Q: And the inhibition [34]?
A: Active

Q: What about the Activity [35] of the same molecule?
A: Non-Toxic

Q: What about the Activity [36] of the same molecule?
A: Non-Toxic
